The values below come from patent publication US8431563B2 (priority 2010, dated 2013).

The target in experiment [1] is T1, GKRP (Glucokinase Regulatory Protein) with human His-hepatic GK (Homo sapiens, UniProt Q14397).
T1 sequence (Q14397 1-625): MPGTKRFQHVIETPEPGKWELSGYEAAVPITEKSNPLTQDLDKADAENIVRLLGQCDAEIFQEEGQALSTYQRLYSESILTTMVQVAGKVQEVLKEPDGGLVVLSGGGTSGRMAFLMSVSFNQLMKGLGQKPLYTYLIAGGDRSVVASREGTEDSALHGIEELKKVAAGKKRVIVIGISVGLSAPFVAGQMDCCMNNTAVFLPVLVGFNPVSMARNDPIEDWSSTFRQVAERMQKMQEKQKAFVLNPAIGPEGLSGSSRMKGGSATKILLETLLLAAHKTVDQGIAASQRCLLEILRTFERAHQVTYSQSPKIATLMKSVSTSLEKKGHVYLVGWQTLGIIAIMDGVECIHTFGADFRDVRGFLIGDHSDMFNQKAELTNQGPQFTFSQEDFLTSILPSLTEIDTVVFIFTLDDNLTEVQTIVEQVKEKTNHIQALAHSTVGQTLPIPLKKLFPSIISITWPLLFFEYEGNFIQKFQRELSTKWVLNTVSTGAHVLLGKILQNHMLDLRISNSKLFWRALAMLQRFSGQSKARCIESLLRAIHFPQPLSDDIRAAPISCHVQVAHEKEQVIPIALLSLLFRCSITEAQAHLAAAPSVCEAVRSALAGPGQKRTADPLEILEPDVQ
Kind of experiment: GKRP NADPH Coupled Assay. In kind it is biochemical. As to conditions: indirect measure of glucose-6-phosphate, fluorescence, 1 μM GKRP (10×), 20 nM GK (5×). The gist of the method: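 Human His-hepatic GK (5× stock 20 nM) in 50 mM Tris pH 7.5, 4 mM MgCl2, 6% DMSO, 0.1% BSA, 0.01% Brij-35, with GKRP and compound preincubated 30 min, then reaction 1 h at RT. Glucose-6-phosphate read indirectly via G6P dehydrogenase-coupled NADPH formation from β-NADP (2× stop/detection reagent, pH 9.2, 5 min).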

Experiment [2] addresses T1, GKRP (Glucokinase Regulatory Protein) with human His-hepatic GK. Description: GKRP LC MS/MS Biochemical Assay. As to conditions: 13C-glucose-6-phosphate formation, 1 μM GKRP (10×), 30 nM GK (5×). As to the method:
GKRP LC MS/MS Biochemical Assay
This assay is used to directly measure the formation of ^13C-glucose-6-phosphate from ^13C-glucose by liquid chromatography-mass spectrometry (LC MS/MS). Begin by preparing the following solutions: Compound Buffer (CB): 50 mM Tris, pH 7.5/4 mM MgCl2/6% DMSO/fresh 10 mM DTT from 1M frozen stock. Enzyme Buffer (EB): 50 mM Tris, pH 7.5/4 mM MgCl2/6% DMSO/fresh 0.1% BSA/fresh 0.01% Brij-35 (10% BSA and 1% Brij-35 stock). GK (Glucokinase) Working Stock (5×): Dilute human His-hepatic GK to 30 nM in EB buffer. […] After 30 minutes add 10 μl of GK Working Stock (5×). Re-seal the plate and incubate for another 30 minutes at room temperature while mixing. After the second 30 minutes, stop the reaction by the addition of 50 μl of 100% acetonitrile, seal, and mix for 5-10 minutes. Run 10 μl of this sample through the LC MS/MS (API 3200, Applied Biosystems Inc., Carlsbad, Calif.).

[3] abbreviates: read-out: GK-GKRP EC50 (NADPH-coupled).
The mark [4] stands for this setting: read-out: GK-GKRP EC50 (LC MS/MS).

The structures appear in SMILES notation. Counter-ions that a name gives are not always drawn.

On to `CC(O)(c1ccc(N2CCN(S(=O)(=O)c3cccs3)CC2CN2CCOCC2)cc1)C(F)(F)F` (mixture of isomers) [Example 61, 1,1,1-trifluoro-2-(4-(2-(4-morpholinylmethyl)-4-(2-thiophenylsulfonyl)-1-piperazinyl)phenyl)-2-propanol], for which the EC50 is 0.23 µM in experiment [1] (GK-GKRP EC50 (NADPH-coupled)) and 0.355 µM in experiment [2] (GK-GKRP EC50 (LC MS/MS)).
For `CC(C)(CO)NCC1CN(S(=O)(=O)c2cccs2)CCN1c1ccc(C(C)(O)C(F)(F)F)cc1` (mixture of isomers) [Example 54, 2-methyl-2-(((4-(2-thiophenylsulfonyl)-1-(4-(2,2,2-trifluoro-1-hydroxy-1-methylethyl)phenyl)-2-piperazinyl)methyl)amino)-1-propanol], the EC50 in experiment [1] (setting [3]) amounted to 2.97 µM; in experiment [2] (setting [4]), 2.78 µM.
The like results for `CC(C)CC1CN(S(=O)(=O)c2cccs2)CCN1c1ccc(C(C)(O)C(F)(F)F)cc1` (mixture of isomers) [Example 57, 1,1,1-trifluoro-2-(4-(2-(2-methylpropyl)-4-(2-thiophenylsulfonyl)-1-piperazinyl)phenyl)-2-propanol] were, in that order, 0.655 µM and 1.02 µM.
As to `CC(O)(c1ccc(N2CCN(S(=O)(=O)c3ccccc3)CC2CC2CCOCC2)cc1)C(F)(F)F` (stereo not drawn) [Example 41, 1,1,1-trifluoro-2-(4-(4-(phenylsulfonyl)-2-(tetrahydro-2H-pyran-4-ylmethyl)-1-piperazinyl)phenyl)-2-propanol], the figures for the EC50 in experiment [1] (setting [3]) and in experiment [2] (setting [4]) were 0.785 µM and 0.572 µM, respectively.
For `O=S(=O)(c1cccs1)N1CCN(c2ccc(C(O)(C(F)(F)F)C(F)(F)F)cc2-c2ccsc2)CC1` [Example 73, 1,1,1,3,3,3-hexafluoro-2-(3-(3-thiophenyl)-4-(4-(2-thiophenylsulfonyl)-1-piperazinyl)phenyl)-2-propanol], the EC50 stood at 3.5 µM in experiment [1] (GK-GKRP EC50 (NADPH-coupled)) and 1.9 µM in experiment [2] (GK-GKRP EC50 (LC MS/MS)).
Take `C[C@H]1CN(S(=O)(=O)c2nccs2)CCN1c1ccc(C(C)(O)C(F)(F)F)cc1` (single isomer, unassigned) [Example 34 Peak #2]: the EC50 in experiment [1] (GK-GKRP EC50 (NADPH-coupled)) amounted to 1.94 µM; in experiment [2] (GK-GKRP EC50 (LC MS/MS)), 1.92 µM.
As for `O=S(=O)(c1cccc(Cl)c1)N1CCN(c2ccc(C(O)(C(F)(F)F)C(F)(F)F)cc2)CC1` [Example 9, 2-(4-(4-(3-chlorophenylsulfonyl)piperazin-1-yl)phenyl)-1,1,1,3,3,3-hexafluoro-2-propanol], the EC50 was 4.41 µM in experiment [1] (GK-GKRP EC50 (NADPH-coupled)) and 3.71 µM in experiment [2] (GK-GKRP EC50 (LC MS/MS)).
For the molecule `C[C@H]1COCCN1CC1CN(S(=O)(=O)c2cccs2)CCN1c1ccc(C(C)(O)C(F)(F)F)cc1` (single isomer, unassigned) [Example 45 Peak #1], the EC50 in experiment [1] (GK-GKRP EC50 (NADPH-coupled)) amounted to 0.052 µM; in experiment [2] (GK-GKRP EC50 (LC MS/MS)), 0.062 µM.
`Cc1ccccc1S(=O)(=O)N1CCN(c2ccc(C(O)(C(F)(F)F)C(F)(F)F)cc2)CC1` [Example 4, 1,1,1,3,3,3-hexafluoro-2-(4-(4-((2-methylphenyl)sulfonyl)-1-piperazinyl)phenyl)-2-propanol]: the EC50 in experiment [1] (GK-GKRP EC50 (NADPH-coupled)) was 1.27 µM; in experiment [2] (GK-GKRP EC50 (LC MS/MS)), 1.71 µM.
In the case of `C[C@H]1CN(S(=O)(=O)c2ccccc2)CCN1c1ccc(C(C)(O)C(F)(F)F)cc1` (mixture of isomers) [Example 28, 1,1,1-trifluoro-2-(4-((2S)-2-methyl-4-(phenylsulfonyl)-1-piperazinyl)phenyl)-2-propanol], the EC50 in experiment [1] (GK-GKRP EC50 (NADPH-coupled)) was determined as 3.12 µM; in experiment [2] (GK-GKRP EC50 (LC MS/MS)), 4.01 µM.
The like results for `O=S(=O)(c1cccs1)N1CCN(c2ccc(C(O)(C(F)(F)F)C(F)(F)F)cc2-c2ccc(O)cc2)CC1` [Example 74, 2′-(4-(2-thiophenylsulfonyl)-1-piperazinyl)-5′-(2,2,2-trifluoro-1-hydroxy-1-(trifluoromethyl)ethyl)-4-biphenylol] were, in that order, 1.47 µM and 1.37 µM.
Take `COc1cccc(-c2cc(C(O)(C(F)(F)F)C(F)(F)F)ccc2N2CCN(S(=O)(=O)c3cccs3)CC2)c1` [Example 70, 1,1,1,3,3,3-hexafluoro-2-(3′-methoxy-6-(4-(2-thiophenylsulfonyl)-1-piperazinyl)-3-biphenylyl)-2-propanol trifluoroacetate]: the EC50 in experiment [1] (GK-GKRP EC50 (NADPH-coupled)) stood at 3.34 µM; in experiment [2] (GK-GKRP EC50 (LC MS/MS)), 1.82 µM.
In the case of `CC(O)(c1ccc(N2CCN(S(=O)(=O)c3cccs3)C[C@@H]2Cc2ccccc2)cc1)C(F)(F)F` (single isomer, unassigned) [Example 65 Peak #2], the EC50 in experiment [1] (GK-GKRP EC50 (NADPH-coupled)) came to 0.166 µM; in experiment [2] (GK-GKRP EC50 (LC MS/MS)), 0.24 µM.
The like results for `CC1(C)CN(CC2CN(S(=O)(=O)c3cccs3)CCN2c2ccc(C(C)(O)C(F)(F)F)cc2)CCO1` (mixture of isomers) [Example 47, 2-(4-(2-((2,2-dimethyl-4-morpholinyl)methyl)-4-(2-thiophenylsulfonyl)-1-piperazinyl)phenyl)-1,1,1-trifluoro-2-propanol] were, in that order, 0.182 µM and 0.295 µM.
In the case of `CC(O)(c1ccc(N2CCN(S(=O)(=O)c3ccccc3)CC2)cc1)C(F)(F)F` (single isomer, unassigned) [Example 24 Peak #1, 1,1,1-trifluoro-2-(4-(4-(phenylsulfonyl)-1-piperazinyl)phenyl)-2-propanol], the EC50 in experiment [1] (GK-GKRP EC50 (NADPH-coupled)) amounted to 2.57 µM; in experiment [2] (GK-GKRP EC50 (LC MS/MS)) it was 2.07 µM.
On to `CC(O)(c1ccc(N2CCN(S(=O)(=O)c3cccs3)CC2Cc2ccncc2)cc1)C(F)(F)F` (mixture of isomers) [Example 76, 1,1,1-trifluoro-2-(4-(2-(4-pyridinylmethyl)-4-(2-thiophenylsulfonyl)-1-piperazinyl)phenyl)-2-propanol trifluoroacetate], for which the figures for the EC50 in experiment [1] (GK-GKRP EC50 (NADPH-coupled)) and in experiment [2] (GK-GKRP EC50 (LC MS/MS)) were 0.207 µM and 0.522 µM, respectively.
On the same counts, the results for `CC(O)(c1ccc(N2CCN(S(=O)(=O)c3cccs3)CC2CN2CCOCC2CO)cc1)C(F)(F)F` (mixture of isomers) [Example 48, 1,1,1-trifluoro-2-(4-(2-((3-(hydroxymethyl)-4-morpholinyl)methyl)-4-(2-thiophenylsulfonyl)-1-piperazinyl)phenyl)-2-propanol] are 0.389 µM and 0.606 µM.
On the same counts, the results for `CC(O)(c1ccc(N2CCN(S(=O)(=O)c3cccs3)CC2CN2CCOC(CO)C2)cc1)C(F)(F)F` (mixture of isomers) [Example 52, 1,1,1-trifluoro-2-(4-(2-((2-(hydroxymethyl)-4-morpholinyl)methyl)-4-(2-thiophenylsulfonyl)-1-piperazinyl)phenyl)-2-propanol] are 1.62 µM and 1.17 µM.
The like results for `CC1(C#Cc2cc(C(C)(O)C(F)(F)F)ccc2N2CCN(S(=O)(=O)c3cccs3)CC2)COC1` (racemic) [Example 75, 1,1,1-trifluoro-2-(3-((3-methyl-3-oxetanyl)ethynyl)-4-(4-(2-thiophenylsulfonyl)-1-piperazinyl)phenyl)-2-propanol] were, in that order, 2.9 µM and 2.8 µM.
`CC(O)(c1ccc(N2CCN(S(=O)(=O)c3ccccc3)CC2)cc1)C(F)(F)F` (racemic) [Example 24, 1,1,1-trifluoro-2-(4-(4-(phenylsulfonyl)-1-piperazinyl)phenyl)-2-propanol]: the EC50 was found to be 1.84 µM in experiment [1] (GK-GKRP EC50 (NADPH-coupled)) and 3.96 µM in experiment [2] (GK-GKRP EC50 (LC MS/MS)).
The like results for `C[C@H]1CN(S(=O)(=O)c2nnc(N)s2)CCN1c1ccc(C(C)(O)C(F)(F)F)cc1` (mixture of isomers) [Example 35, 2-(4-((2S)-4-((5-amino-1,3,4-thiadiazol-2-yl)sulfonyl)-2-methyl-1-piperazinyl)phenyl)-1,1,1-trifluoro-2-propanol] were, in that order, 3.04 µM and 5.62 µM.
